From patent US20230301300A1, “HERBICIDAL COMPOSITIONS” (SYNGENTA CROP PROTECTION AG, priority 2020, published 2023)

Legend:
Experiment in all cases: B2 Post-Emergence Efficacy - Test 2
Assay type in all cases: in vivo
[1] = test system: Abutilon theophrasti (ABUTH); conditions: 15 days after application, 0-100 scale
How it was run: (§1)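 Glasshouse post-emergence test: plants sown in standard soil, grown 12 days (24/18 °C or 20/16 °C day/night; 16 h light; 65% humidity), sprayed once with an aqueous IF50-based formulation including 0.2% v/v Genapol X080. Visual injury, 0–100, recorded 15 days post-application.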

[2] = test system: Amaranthus retroflexus (AMARE); conditions: 15 days after application, 0-100 scale
How it was run: as §1

Avena fatua (AVEFA) = conditions: 15 days after application, 0-100 scale
How it was run: as §1

Beta vulgaris (BEAVA) = conditions: 15 days after application, 0-100 scale
How it was run: as §1

[3] = test system: Brachiaria plantaginea (BRAPL); conditions: 15 days after application, 0=no damage, 100=total kill
How it was run: as §1

Brassica napus (BRSNN) = conditions: 15 days after application, 0-100 scale
How it was run: as §1

Bromus tectorum (BROTE) = conditions: 15 days after application, 0-100 scale
How it was run: as §1

[4] = test system: Digitaria sanguinalis (DIGSA); conditions: 15 days after application, 0=no damage, 100=total kill
How it was run: as §1

Glycine max (GLXMA) = conditions: 15 days after application; for Herbicidal activity GLXMA: 0-100 scale; for Herbicidal activity on a 0-100 scale, GLXMA: 0=no damage, 100=total kill
How it was run: as §1

[5] = test system: Ipomoea hederacea (IPOHE); conditions: 15 days after application, 0-100 scale
How it was run: as §1

Kochia scoparia (KSHSC) = conditions: 15 days after application, 0-100 scale
How it was run: as §1

Lolium perenne (LOLPE) = conditions: 15 days after application, 0-100 scale
How it was run: as §1

Poa annua (POAAN) = conditions: 15 days after application, 0-100 scale
How it was run: as §1

Sida spinosa (SIDSP) = conditions: 15 days after application, 0-100 scale
How it was run: as §1

Sinapis arvensis (SINAR) = conditions: 15 days after application, 0-100 scale
How it was run: as §1

Sorghum bicolour (SORVU) = conditions: 15 days after application, 0=no damage, 100=total kill
How it was run: as §1

[6] = test system: Triticum aestivum (TRZAW); conditions: 15 days after application, 0-100 scale
How it was run: as §1

[7] = test system: Xanthium strumarium (XANST); conditions: 15 days after application, 0-100 scale
How it was run: as §1

In the case of `Cc1nn(C)c(=O)c(-c2c(F)ccc(Cl)c2CCc2ccccc2C(F)(F)F)c1O` [Compound 1.066, 4-[3-chloro-6-fluoro-2-[2-[2-(trifluoromethyl)phenyl]ethyl]phenyl]-5-hydroxy-2,6-dimethyl-pyridazin-3-one], the “Herbicidal activity ABUTH” value ([1]; 15 g/Ha) is reported as 20, the “Herbicidal activity ABUTH” value ([1]; 30 g/Ha) is reported as 50 and the “Herbicidal activity ABUTH” value ([1]; 60 g/Ha) is reported as 50. For the same molecule, the “Herbicidal activity ABUTH” value ([1]; 125 g/Ha) was 90, the “Herbicidal activity ABUTH” value ([1]; 250 g/Ha) was 90 and the “Herbicidal activity ABUTH” value ([1]; 500 g/Ha) was 100. For the same molecule, the “Herbicidal activity AMARE” value ([2]; 15 g/Ha) was 90, the “Herbicidal activity AMARE” value ([2]; 30 g/Ha) was 90 and the “Herbicidal activity AMARE” value ([2]; 60 g/Ha) was 90. For the same molecule, the “Herbicidal activity AMARE” value ([2]; 125 g/Ha) was 100, the “Herbicidal activity AMARE” value ([2]; 250 g/Ha) was 100 and the “Herbicidal activity AMARE” value ([2]; 500 g/Ha) was 100. For the same molecule, the “Herbicidal activity AVEFA” value (Avena fatua (AVEFA); 15 g/Ha) was 0, the “Herbicidal activity AVEFA” value (Avena fatua (AVEFA); 30 g/Ha) was 20 and the “Herbicidal activity AVEFA” value (Avena fatua (AVEFA); 60 g/Ha) was 40. The “Herbicidal activity AVEFA” value (Avena fatua (AVEFA); 125 g/Ha) was 90, the “Herbicidal activity AVEFA” value (Avena fatua (AVEFA); 250 g/Ha) was 90 and the “Herbicidal activity AVEFA” value (Avena fatua (AVEFA); 500 g/Ha) was 90. For the same molecule, the “Herbicidal activity BEAVA” value (Beta vulgaris (BEAVA); 15 g/Ha) was 80, the “Herbicidal activity BEAVA” value (Beta vulgaris (BEAVA); 30 g/Ha) was 80 and the “Herbicidal activity BEAVA” value (Beta vulgaris (BEAVA); 60 g/Ha) was 80. The “Herbicidal activity BEAVA” value (Beta vulgaris (BEAVA); 125 g/Ha) was 80, the “Herbicidal activity BEAVA” value (Beta vulgaris (BEAVA); 250 g/Ha) was 80 and the “Herbicidal activity BEAVA” value (Beta vulgaris (BEAVA); 500 g/Ha) was 90. For the same molecule, the “Herbicidal activity on a 0-100 scale, BRAPL” value (“Herbicidal activity … BRAPL” for short) ([3]; 15 g/Ha) was 0, the “Herbicidal activity … BRAPL” value ([3]; 30 g/Ha) was 60 and the “Herbicidal activity … BRAPL” value ([3]; 125 g/Ha) was 80. For the same molecule, the “Herbicidal activity … BRAPL” value ([3]; 250 g/Ha) was 70, the “Herbicidal activity … BRAPL” value ([3]; 500 g/Ha) was 100 and the “Herbicidal activity BRSNN” value (Brassica napus (BRSNN); 15 g/Ha) was 90. For the same molecule, the “Herbicidal activity BRSNN” value (Brassica napus (BRSNN); 30 g/Ha) was 90, the “Herbicidal activity BRSNN” value (Brassica napus (BRSNN); 60 g/Ha) was 90 and the “Herbicidal activity BRSNN” value (Brassica napus (BRSNN); 125 g/Ha) was 90. For the same molecule, the “Herbicidal activity BRSNN” value (Brassica napus (BRSNN); 250 g/Ha) was 90, the “Herbicidal activity BRSNN” value (Brassica napus (BRSNN); 500 g/Ha) was 90 and the “Herbicidal activity BROTE” value (Bromus tectorum (BROTE); 15 g/Ha) was 0. The “Herbicidal activity BROTE” value (Bromus tectorum (BROTE); 30 g/Ha) was 20, the “Herbicidal activity BROTE” value (Bromus tectorum (BROTE); 60 g/Ha) was 60 and the “Herbicidal activity BROTE” value (Bromus tectorum (BROTE); 125 g/Ha) was 70. The “Herbicidal activity BROTE” value (Bromus tectorum (BROTE); 250 g/Ha) was 80, the “Herbicidal activity BROTE” value (Bromus tectorum (BROTE); 500 g/Ha) was 90 and the “Herbicidal activity on a 0-100 scale, DIGSA” value (from here on “Herbicidal activity … DIGSA”) ([4]; 15 g/Ha) was 0. The “Herbicidal activity … DIGSA” value ([4]; 30 g/Ha) was 20, the “Herbicidal activity … DIGSA” value ([4]; 60 g/Ha) was 20 and the “Herbicidal activity … DIGSA” value ([4]; 125 g/Ha) was 40. For the same molecule, the “Herbicidal activity … DIGSA” value ([4]; 250 g/Ha) was 70, the “Herbicidal activity … DIGSA” value ([4]; 500 g/Ha) was 70 and the “Herbicidal activity GLXMA” value (Glycine max (GLXMA); 15 g/Ha) was 20. The “Herbicidal activity on a 0-100 scale, GLXMA” value (Glycine max (GLXMA); 15 g/Ha) was 20, the “Herbicidal activity GLXMA” value (Glycine max (GLXMA); 30 g/Ha) was 40 and the “Herbicidal activity on a 0-100 scale, GLXMA” value (Glycine max (GLXMA); 30 g/Ha) was 40. For the same molecule, the “Herbicidal activity GLXMA” value (Glycine max (GLXMA); 60 g/Ha) was 70, the “Herbicidal activity on a 0-100 scale, GLXMA” value (Glycine max (GLXMA); 60 g/Ha) was 70 and the “Herbicidal activity GLXMA” value (Glycine max (GLXMA); 125 g/Ha) was 70. For the same molecule, the “Herbicidal activity on a 0-100 scale, GLXMA” value (Glycine max (GLXMA); 125 g/Ha) was 70, the “Herbicidal activity GLXMA” value (Glycine max (GLXMA); 250 g/Ha) was 90 and the “Herbicidal activity on a 0-100 scale, GLXMA” value (Glycine max (GLXMA); 250 g/Ha) was 90. The “Herbicidal activity GLXMA” value (Glycine max (GLXMA); 500 g/Ha) was 90, the “Herbicidal activity on a 0-100 scale, GLXMA” value (Glycine max (GLXMA); 500 g/Ha) was 90 and the “Herbicidal activity IPOHE” value ([5]; 15 g/Ha) was 70. The “Herbicidal activity IPOHE” value ([5]; 30 g/Ha) was 90, the “Herbicidal activity IPOHE” value ([5]; 60 g/Ha) was 90 and the “Herbicidal activity IPOHE” value ([5]; 125 g/Ha) was 100. For the same molecule, the “Herbicidal activity IPOHE” value ([5]; 250 g/Ha) was 100, the “Herbicidal activity IPOHE” value ([5]; 500 g/Ha) was 100 and the “Herbicidal activity KCHSC” value (Kochia scoparia (KSHSC); 15 g/Ha) was 0. For the same molecule, the “Herbicidal activity KCHSC” value (Kochia scoparia (KSHSC); 30 g/Ha) was 0, the “Herbicidal activity KCHSC” value (Kochia scoparia (KSHSC); 60 g/Ha) was 0 and the “Herbicidal activity KCHSC” value (Kochia scoparia (KSHSC); 125 g/Ha) was 10. For the same molecule, the “Herbicidal activity KCHSC” value (Kochia scoparia (KSHSC); 250 g/Ha) was 20, the “Herbicidal activity KCHSC” value (Kochia scoparia (KSHSC); 500 g/Ha) was 20 and the “Herbicidal activity LOLPE” value (Lolium perenne (LOLPE); 15 g/Ha) was 10. The “Herbicidal activity LOLPE” value (Lolium perenne (LOLPE); 30 g/Ha) was 20, the “Herbicidal activity LOLPE” value (Lolium perenne (LOLPE); 60 g/Ha) was 80 and the “Herbicidal activity LOLPE” value (Lolium perenne (LOLPE); 125 g/Ha) was 90. For the same molecule, the “Herbicidal activity LOLPE” value (Lolium perenne (LOLPE); 250 g/Ha) was 90, the “Herbicidal activity LOLPE” value (Lolium perenne (LOLPE); 500 g/Ha) was 100 and the “Herbicidal activity POAAN” value (Poa annua (POAAN); 15 g/Ha) was 20. For the same molecule, the “Herbicidal activity POAAN” value (Poa annua (POAAN); 30 g/Ha) was 70, the “Herbicidal activity POAAN” value (Poa annua (POAAN); 60 g/Ha) was 80 and the “Herbicidal activity POAAN” value (Poa annua (POAAN); 125 g/Ha) was 90. For the same molecule, the “Herbicidal activity POAAN” value (Poa annua (POAAN); 250 g/Ha) was 90, the “Herbicidal activity POAAN” value (Poa annua (POAAN); 500 g/Ha) was 90 and the “Herbicidal activity SIDSP” value (Sida spinosa (SIDSP); 15 g/Ha) was 40. The “Herbicidal activity SIDSP” value (Sida spinosa (SIDSP); 30 g/Ha) was 80, the “Herbicidal activity SIDSP” value (Sida spinosa (SIDSP); 60 g/Ha) was 80 and the “Herbicidal activity SIDSP” value (Sida spinosa (SIDSP); 125 g/Ha) was 90. The “Herbicidal activity SIDSP” value (Sida spinosa (SIDSP); 250 g/Ha) was 90, the “Herbicidal activity SIDSP” value (Sida spinosa (SIDSP); 500 g/Ha) was 100 and the “Herbicidal activity SINAR” value (Sinapis arvensis (SINAR); 15 g/Ha) was 60. For the same molecule, the “Herbicidal activity SINAR” value (Sinapis arvensis (SINAR); 30 g/Ha) was 60, the “Herbicidal activity SINAR” value (Sinapis arvensis (SINAR); 60 g/Ha) was 80 and the “Herbicidal activity SINAR” value (Sinapis arvensis (SINAR); 125 g/Ha) was 90. For the same molecule, the “Herbicidal activity SINAR” value (Sinapis arvensis (SINAR); 250 g/Ha) was 90, the “Herbicidal activity SINAR” value (Sinapis arvensis (SINAR); 500 g/Ha) was 90 and the “Herbicidal activity on a 0-100 scale, SORVU” value (“Herbicidal activity … SORVU” for short) (Sorghum bicolour (SORVU); 15 g/Ha) was 0. The “Herbicidal activity … SORVU” value (Sorghum bicolour (SORVU); 30 g/Ha) was 20, the “Herbicidal activity … SORVU” value (Sorghum bicolour (SORVU); 60 g/Ha) was 60 and the “Herbicidal activity … SORVU” value (Sorghum bicolour (SORVU); 125 g/Ha) was 80. For the same molecule, the “Herbicidal activity … SORVU” value (Sorghum bicolour (SORVU); 250 g/Ha) was 90, the “Herbicidal activity … SORVU” value (Sorghum bicolour (SORVU); 500 g/Ha) was 100 and the “Herbicidal activity TRZAW” value ([6]; 15 g/Ha) was 0. For the same molecule, the “Herbicidal activity TRZAW” value ([6]; 30 g/Ha) was 10, the “Herbicidal activity TRZAW” value ([6]; 60 g/Ha) was 40 and the “Herbicidal activity TRZAW” value ([6]; 125 g/Ha) was 60. For the same molecule, the “Herbicidal activity TRZAW” value ([6]; 250 g/Ha) was 70, the “Herbicidal activity TRZAW” value ([6]; 500 g/Ha) was 80 and the “Herbicidal activity XANST” value ([7]; 60 g/Ha) was 90. For the same molecule, the “Herbicidal activity XANST” value ([7]; 250 g/Ha) was 100 and the “Herbicidal activity XANST” value ([7]; 500 g/Ha) was 100.
